ChEMBL document CHEMBL3244218, “beta-Adrenergic blocking agents with acute antihypertensive activity” (1979)

Columns and labels:
Canis familiaris [1] = test: In-vivo beta-adrenergic blocking activity in iv dosed mongrel dog assessed as blockade of isoproterenol-induced hypotension by measuring mean arterial pressure; assay type: functional; conditions: Canis lupus familiaris, Artery
Canis familiaris [2] = test: Peripheral vasodilating activity in mongrel dog assessed as increase in iliac blood flow at 1600 ug, ia in presence of isoproterenol and 500 ug/kg timolol; assay type: functional, Canis lupus familiaris, Artery
Rattus norvegicus [3] = test: Antihypertensive activity in spontaneously hypertensive rat assessed as maximum fall in mean arterial pressure at 20 mg/kg, po; assay type: functional, Artery
Canis familiaris [4] = test: In-vivo beta-adrenergic blocking activity in iv dosed mongrel dog assessed as blockade of isoproterenol-induced bronchodilation by measuring pulmonary pressure; assay type: functional; conditions: Canis lupus familiaris
Canis familiaris [5] = species: Canis familiaris; test: Peripheral vasodilating activity in mongrel dog assessed as increase in iliac blood flow at 1600 ug, ia; assay type: functional, Canis lupus familiaris, Artery
Canis familiaris [6] = test: In-vivo beta-adrenergic blocking activity in iv dosed mongrel dog assessed as blockade of isoproterenol-induced tachycardia by measuring heart rate; assay type: functional; conditions: Canis lupus familiaris
Rattus norvegicus [7] = test: Antihypertensive activity in spontaneously hypertensive rat assessed as maximum fall in mean arterial pressure at 1.25 mg/kg, po; assay type: functional, Artery
Rattus norvegicus [8] = test: Antihypertensive activity in spontaneously hypertensive rat assessed as maximum fall in mean arterial pressure at 5 mg/kg, po; assay type: functional, Artery
Canis familiaris [9] = test: Peripheral vasodilating activity in mongrel dog assessed as increase in iliac blood flow at 1600 ug, ia in presence of isoproterenol and 2000 ug/kg timolol; assay type: functional, Canis lupus familiaris, Artery
Canis familiaris [10] = test: Peripheral vasodilating activity in mongrel dog assessed as increase in iliac blood flow at 1600 ug, ia in presence of isoproterenol and 1000 ug/kg timolol; assay type: functional, Canis lupus familiaris, Artery
Rattus norvegicus [11] = test: Antihypertensive activity in spontaneously hypertensive rat assessed as maximum fall in mean arterial pressure at 0.312 mg/kg, po; assay type: functional, Artery
Canis familiaris [12] = test: Peripheral vasodilating activity in mongrel dog assessed as increase in iliac blood flow at 16 ug, ia in presence of isoproterenol and 2000 ug/kg timolol; assay type: functional, Canis lupus familiaris, Artery
Canis familiaris [13] = species: Canis familiaris; test: Peripheral vasodilating activity in mongrel dog assessed as increase in iliac blood flow at 16 ug, ia; assay type: functional, Canis lupus familiaris, Artery
Canis familiaris [14] = test: Peripheral vasodilating activity in mongrel dog assessed as increase in iliac blood flow at 32 ug, ia in presence of isoproterenol and 2000 ug/kg timolol; assay type: functional, Canis lupus familiaris, Artery
Canis familiaris [15] = species: Canis familiaris; test: Peripheral vasodilating activity in mongrel dog assessed as increase in iliac blood flow at 8 ug, ia; assay type: functional, Canis lupus familiaris, Artery
Canis familiaris [16] = species: Canis familiaris; test: Peripheral vasodilating activity in mongrel dog assessed as increase in iliac blood flow at 32 ug, ia; assay type: functional, Canis lupus familiaris, Artery
Canis familiaris [17] = test: Peripheral vasodilating activity in mongrel dog assessed as increase in iliac blood flow at 8 ug, ia in presence of isoproterenol and 2000 ug/kg timolol; assay type: functional, Canis lupus familiaris, Artery
Canis familiaris [18] = species: Canis familiaris; test: Peripheral vasodilating activity in mongrel dog assessed as increase in iliac blood flow at 250 ug, ia; assay type: functional, Canis lupus familiaris, Artery

Row | SMILES | ED50 (Canis familiaris [1]) | Activity (Rattus norvegicus [3]) | ED50 (Canis familiaris [4]) | Activity (Canis familiaris [5]) | ED50 (Canis familiaris [6]) | Activity (Rattus norvegicus [7]) | Activity (Rattus norvegicus [8]) | Activity (Canis familiaris [9]) | other results
1 | CC(C)(C)NCC(O)COc1ccc(-c2ncc[nH]2)cc1 (racemic) | > 1 mg/kg | 18 mmHg | > 1 mg/kg | 36 mL/min | 0.098 mg/kg | – | – | – | Activity (Canis familiaris [2]): 31 mL/min
2 | Cc1cnc(-c2ccc(OC[C@@H](O)CNC(C)(C)C)cc2)[nH]1.O=C(O)/C=C\C(=O)O | 1 mg/kg | 41 mmHg | 0.277 mg/kg | 59 mL/min | 0.03 mg/kg | 24 mmHg | 19 mmHg | 32 mL/min | –
3 | CC(C)(C)NCC(O)COc1ccc(-c2ncc(C(F)(F)F)[nH]2)c2c1CCCC2 (racemic) | 0.167 mg/kg | 22 mmHg | 0.1 mg/kg | -15 mL/min | 0.228 mg/kg | – | – | – | Activity (Canis familiaris [10]): -10 mL/min
4 | CC(C)(C)NCC(O)COc1ccc(-c2ncc(-c3cccnc3)[nH]2)cc1 (racemic) | > 1 mg/kg | 13 mmHg | – | 64 mL/min | 0.054 mg/kg | – | 28 mmHg | 40 mL/min | –
5 | CC(C)(C)NC[C@H](O)COc1ccc(-c2ncc(-c3cccs3)[nH]2)cc1.O=C(O)/C=C\C(=O)O | 0.234 mg/kg | – | 0.433 mg/kg | 23 mL/min | 0.014 mg/kg | 20 mmHg | 33 mmHg | 15 mL/min | Activity (Rattus norvegicus [11]): 9 mmHg
6 | CC(C)(C)NCC(O)COc1ccc(-c2ncc(-c3c(F)c(F)c(F)c(F)c3F)[nH]2)cc1 (racemic) | 0.3 mg/kg | 40 mmHg | – | 56 mL/min | 0.082 mg/kg | 21 mmHg | 19 mmHg | 48 mL/min | –
7 | CC(C)(C)NCC(O)COc1ccc(-c2ncc(-c3ccc(Cl)c(Cl)c3)[nH]2)cc1 (racemic) | 0.117 mg/kg | 49 mmHg | 0.097 mg/kg | 56 mL/min | 0.123 mg/kg | 36 mmHg | 35 mmHg | 15 mL/min | –
8 | CC(C)(C)NCC(O)COc1ccc(-c2ncc(C(N)=O)[nH]2)cc1 (racemic) | > 1 mg/kg | 14 mmHg | > 1 mg/kg | – | 0.262 mg/kg | – | – | – | –
9 | CC(C)(C)NCC(O)COc1ccc(-c2ncc(C(F)(F)F)[nH]2)c2ccccc12 (racemic) | > 1 mg/kg | 40 mmHg | – | 35 mL/min | 0.186 mg/kg | – | 21 mmHg | – | Activity (Canis familiaris [10]): 40 mL/min
10 | CC(C)(C)NCC(O)COc1ccc(-c2nc(C(F)(F)F)c[nH]2)cc1 (racemic) | 0.042 mg/kg | – | 0.071 mg/kg | 79 mL/min | 0.0076 mg/kg | 36 mmHg | 49 mmHg | 15 mL/min | Activity (Canis familiaris [12]): 17 mL/min; Activity (Canis familiaris [13]): 58 mL/min; Activity (Canis familiaris [14]): 15 mL/min; Activity (Rattus norvegicus [11]): 21 mmHg; Activity (Canis familiaris [15]): 52 mL/min; Activity (Canis familiaris [16]): 63 mL/min; Activity (Canis familiaris [17]): 10 mL/min
11 | NNc1nncc2ccccc12 [HYDRALAZINE] | – | – | – | 66 mL/min | – | – | – | – | –
12 | CC(C)(C)NCC(O)COc1ccc(-c2ncc(-c3ccccn3)[nH]2)cc1 (racemic) | – | 40 mmHg | – | – | – | 6 mmHg | 27 mmHg | – | –
13 | COC(=O)c1cnc(-c2ccc(OCC(O)CNC(C)(C)C)cc2)[nH]1 (racemic) | > 1 mg/kg | 36 mmHg | – | 80 mL/min | 0.04 mg/kg | – | 17 mmHg | 29 mL/min | –
14 | CC(C)(C)NCC(O)COc1ccc(-c2ncc(-c3ccccc3)[nH]2)cc1 (racemic) | 0.083 mg/kg | 54 mmHg | 0.095 mg/kg | 46 mL/min | 0.035 mg/kg | 20 mmHg | 30 mmHg | 42 mL/min | –
15 | CC(C)(C)NCC(O)COc1ccc(-c2ncc(C(F)(F)F)[nH]2)c(Cl)c1 (racemic) | 0.552 mg/kg | – | 0.054 mg/kg | 2 mL/min | 0.027 mg/kg | 28 mmHg | 36 mmHg | – | Activity (Canis familiaris [18]): -2 mL/min
16 | CC(C)(C)NCC(O)COc1cc(Cl)c(-c2ncc(C(F)(F)F)[nH]2)c(Cl)c1 (racemic) | – | – | – | – | – | 16 mmHg | 30 mmHg | – | –
